No end group written: not given here.
Assays:
mushroom tyrosinase [1] = target: T1, mushroom tyrosinase (Agaricus bisporus, UniProt C7FF04); assay: Enzymatic assay of mushroom tyrosinase, L-tyrosine as substrate; format: biochemical
Protocol: The assay mixture was incubated at 37° C.
In order to assess this potential, their inhibitory activity against mushroom tyrosinase was tested.

human tyrosinase = target: T2, human tyrosinase (Homo sapiens, UniProt P14679); assay: Inhibition of freshly extracted human tyrosinase, L-dopa as substrate; format: biochemical; conditions: at 200 μM
T2 construct: cells were harvested and lysed using 1% Triton X-100 in 0.067 M potassium phosphate buffer (pH 6.8); endogenous in cells; host or cells: primary human melanocytes (gift from Dr. Todd Ridky, Stanford), clarified Triton X-100 lysate
T2 sequence (P14679 19-529): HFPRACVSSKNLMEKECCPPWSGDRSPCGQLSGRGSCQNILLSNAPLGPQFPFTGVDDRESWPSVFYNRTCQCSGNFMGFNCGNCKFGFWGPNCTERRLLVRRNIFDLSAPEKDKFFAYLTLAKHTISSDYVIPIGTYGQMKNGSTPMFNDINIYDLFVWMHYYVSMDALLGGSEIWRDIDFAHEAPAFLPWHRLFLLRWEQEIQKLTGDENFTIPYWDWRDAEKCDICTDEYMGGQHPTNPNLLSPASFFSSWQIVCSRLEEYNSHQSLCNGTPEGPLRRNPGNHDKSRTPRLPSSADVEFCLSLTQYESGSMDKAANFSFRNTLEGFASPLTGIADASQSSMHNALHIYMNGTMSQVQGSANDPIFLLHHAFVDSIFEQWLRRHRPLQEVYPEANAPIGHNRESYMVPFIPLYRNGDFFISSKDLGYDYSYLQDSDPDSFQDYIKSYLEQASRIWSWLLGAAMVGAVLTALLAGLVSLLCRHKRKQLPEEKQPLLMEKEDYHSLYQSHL

[2] = tested on: primary human keratinocytes; conditions: 6 d
Protocol: (§1) Cells were seeded at equal numbers and incubated with varying concentrations of test samples for 1 day, 3 days and 6 days, harvested, stained with trypan blue, and then counted. The assay was carried out in triplicate, and the % cell death was calculated according to the formula shown in Examples.
(§2) Cellular toxicity was measured using a trypan blue dye exclusion assay. Cells were cultured in 6-well plates at a density of 4×10^5 cells/well for 1, 3, or 6 d in 2 ml of medium. […] The plates were incubated at 37° C. in a humidified 5% CO2 chamber, harvested at the appropriate time, treated with trypan blue, and then counted using a hemacytometer. Cytotoxicity was measured according to the following formula: [1−(# of cells in control−# of live cells in test sample)/# of cells in control]×100%.
(§3) The cytotoxic effect of P16-18 on primary human melanocytes, keratinocytes, and fibroblasts were then assessed at 1, 3, and 6 d using trypan blue exclusion.

[3] = tested on: primary human fibroblasts; conditions: 6 d, 30 μM
Protocol: as §1, §2, §3

[4] = tested on: primary human melanocytes; conditions: 6 d
Protocol: as §1, §2, §3

tyrosinase = conditions: read-out: published IC50; published value; cited from earlier work
mushroom tyrosinase [5] = target: T1, mushroom tyrosinase; assay: Kinetic studies of mushroom tyrosinase (Lineweaver-Burk, nonlinear regression); format: biochemical
Protocol: The concentration of mushroom tyrosinase [E] was 24 units/ml. […] [I] ranged from 0 to 0.3 mM. Data were obtained as mean values of 1/V, inverse of the increase of absorbance at wavelength of 475 nm per minute (ΔA475/min) for 5 independent trials. Michaelis Menten constant (Km) and the dissociation constant Ki were derived using nonlinear regression analysis with GraphPad Prism 5.
Experiments were conducted using the same protocol as above except for changes in concentration of [E], [S] and [I]. [E] was 24 units/ml, [S] was 0.05, 0.1, 0.25, 0.5, 0.75 and 1 mM, and [I] was 0, 0.03, 0.1, 0.3 and 1 mM. Lineweaver-Burk reciprocal plots were generated to determine the mode of inhibition (Burk, D., Lineweaver, H., and Horner, C. K. (1934) J Bacteriol 27, 325-340), and Michaelis Menten plots were used to determine Vmax and Km. Nonlinear regression using GraphPad Prism 5 software was used to determine Ki. Prism calculates the Ki using the equation of Cheng, Y., and Prusoff, W. H. (1973) Biochem Pharmacol 22, 3099-3108.

[6] = tested on: primary human keratinocytes; conditions: 72 h
Protocol: (§4) The three cell types were incubated with varying concentrations of the test compounds for 72 h at 37° C. and then processed using the MTT assay. Data are presented as % toxicity relative to the control as a function of concentration, and plotted as means±S.E of 5 independent trials. **p<0.01.
(§5) Keratinocytes, fibroblast, and melanocyte proliferation rates were determined using a TACS® MTT Cell Proliferation Kit (R&D systems, Minneapolis, Minn.). Cells were plated at 2.5×10^4/well in 96-well plates in a humidified atmosphere with 5% CO2 at 37° C. Twenty-four h after plating, test samples were added and cultures were incubated for an additional 72 h. The remainder of the procedure was performed following the manufacturer's protocol.
(§6) Proliferation rates were then assessed at 3 d using an MTT assay.

[7] = tested on: primary human fibroblasts; conditions: 72 h
Protocol: as §4, §5, §6

[8] = tested on: primary human melanocytes; conditions: 72 h
Protocol: as §4, §5, §6

MNTI cells = assay: Melanin content measurement in MNTI cells; format: cell-based, human; conditions: 50 μM HQ, 3 days
[9] = tested on: melanocytes, keratinocytes and fibroblasts; conditions: for oligopeptides a minimum ratio (3 mM / IC50)
Description: An ideal therapeutic agent should have a ratio that is higher than two to be considered safe for long-term use in humans.

T1 sequence (C7FF04 1-392): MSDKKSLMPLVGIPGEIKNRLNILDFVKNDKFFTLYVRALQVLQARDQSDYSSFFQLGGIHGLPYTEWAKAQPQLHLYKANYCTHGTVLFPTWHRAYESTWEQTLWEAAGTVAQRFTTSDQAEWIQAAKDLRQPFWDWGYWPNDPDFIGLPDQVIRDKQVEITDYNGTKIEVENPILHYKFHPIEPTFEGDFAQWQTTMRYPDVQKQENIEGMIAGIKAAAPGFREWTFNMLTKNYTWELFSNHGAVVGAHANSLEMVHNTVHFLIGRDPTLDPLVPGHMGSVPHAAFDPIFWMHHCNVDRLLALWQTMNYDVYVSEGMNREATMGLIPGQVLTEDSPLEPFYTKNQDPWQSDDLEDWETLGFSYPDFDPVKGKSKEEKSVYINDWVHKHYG
T1 sequence (G1K3P4 entry or part of it, further chain): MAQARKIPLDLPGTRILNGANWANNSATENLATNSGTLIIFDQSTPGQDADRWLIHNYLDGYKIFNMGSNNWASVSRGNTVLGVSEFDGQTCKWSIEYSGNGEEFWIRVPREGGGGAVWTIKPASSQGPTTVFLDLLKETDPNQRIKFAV

With RRFVCC [Peptide P15] the “tyrosinase inhibition (in words)” value (mushroom tyrosinase [1]; mushroom tyrosinase) was “weak inhibition”.

For RRWWRRYY [Peptide P16], the “human tyrosinase activity reduced by” value (human tyrosinase) was 30%.

RRFVLL [Peptide P14] showed an IC50 (mushroom tyrosinase [1]; mushroom tyrosinase) of 1.8 mM.

In the case of RRRYWYYR [Peptide P17], the “human tyrosinase activity reduced by” value (human tyrosinase) is reported as 12%.

In the case of `Oc1ccc(O)cc1` [HQ, hydroquinone], the cell death ([2]; 300 μM) is reported as 42±3%, the “rate of cell death” value ([2]; 3 mM) is reported as 77±4% and the cell death [3] is reported as 60±2%. The melanocyte cell death ([4]; 20 μM) was 50±3%, the cell death ([4]; 30 μM) was 70±3% and the “cytotoxicity / cell death” value ([4]; 100 μM) was 100%. The IC50 (tyrosinase) was roughly 0.7 mM, the “human tyrosinase activity reduced by” value (human tyrosinase) was 5% and the Nature of inhibition (mushroom tyrosinase [5]; Table 4, from Lineweaver Burk plots) was “competitive”. For the same compound, the “reduction in proliferation rate” value ([6]; 100 μM) was 30±3%, the “proliferation inhibited by” value ([6]; 3 mM) was “up to 63±3%” and the “reduction in proliferation rate” value ([7]; 100 μM) was 45±2%. The “proliferation inhibited by” value ([7]; 3 mM) was “over 90%”, the “reduction in proliferation rate” value ([8]; 100 μM) was 50±3% and the “proliferation inhibited by” value ([8]; 3 mM) was “over 90%”. The “melanin content reduced by” value (MNTI cells) was 50±4% and the “ratio of 50% cytotoxic concentration to IC50” value [9] was “significantly less than one”.

For RRYWYWRR [Peptide P18], the “human tyrosinase activity reduced by” value (human tyrosinase) was 25%.

For “RRFVCC (chains of the parent or of the whole protein) [Peptide P15]”, the IC50 (mushroom tyrosinase [1]; Table 4, mushroom tyrosinase) was 1.12 ± 0.05 mM, the IC50 (mushroom tyrosinase [1]; mushroom tyrosinase) was 1.1 mM and the Ki (mushroom tyrosinase [5]; Table 4, mushroom tyrosinase) was 0.167 ± 0.011 mM.
